ChEMBL document CHEMBL3779854, “Biological evaluation and molecular docking studies of new curcuminoid derivatives: Synthesis and characterization” (Bioorg Med Chem Lett, 2016)
≈ marks a conversion by molar mass, not a printed value. Calls of active or inactive are those of the source. The calls are words filed in the database; no cut-off is given here.

Assays:
[1] = Antiinflammatory activity assessed as inhibition of albumin denaturation after 15 mins by BSA assay; format: functional
Staphylococcus aureus [2] = experiment: Antibacterial activity against Staphylococcus aureus ATCC 25923 at 50 ug after 24 hrs by well diffusion method; format: functional, organism-based
Escherichia coli [3] = experiment: Antibacterial activity against Escherichia coli ATCC 25922 at 50 ug after 24 hrs by well diffusion method; format: functional, organism-based
[4] = Antioxidant activity assessed as H2O2 scavenging activity; format: physicochemical
[5] = Antioxidant activity assessed as DPPH free radical scavenging activity by UV-visible spectrophotometric analysis; format: physicochemical
Escherichia coli [6] = experiment: Antibacterial activity against Escherichia coli ATCC 25922 at 10 ug after 24 hrs by well diffusion method; format: functional, organism-based
Staphylococcus aureus [7] = experiment: Antibacterial activity against Staphylococcus aureus ATCC 25923 at 10 ug after 24 hrs by well diffusion method; format: functional, organism-based
Pseudomonas aeruginosa = experiment: Antibacterial activity against Pseudomonas aeruginosa ATCC 27853 at 50 ug after 24 hrs by well diffusion method; format: functional; settings: for zone of inhibition at 50 µg/disc: ATCC 27853, 24 h, read-out: IZ
Klebsiella pneumoniae = experiment: Antibacterial activity against Klebsiella pneumoniae ATCC 13883 at 50 ug after 24 hrs by well diffusion method; format: functional, organism-based

| IC50 [1] | IC50 [4] | IC50 [5] | SMILES | Activity (Staphylococcus aureus [2]) | Activity (Escherichia coli [3]) | Activity (Escherichia coli [6]) | Activity (Staphylococcus aureus [7]) | Activity (Pseudomonas aeruginosa) | Activity (Klebsiella pneumoniae) | zone of inhibition at 50 µg/disc (Pseudomonas aeruginosa) |
| --- | --- | --- | --- | --- | --- | --- | --- | --- | --- | --- |
| – | 68.82 µg/mL (≈ 391 µM) | 65.53 µg/mL (≈ 372 µM) | O=C1O[C@H]([C@@H](O)CO)C(O)=C1O [ASCORBIC ACID] | – | – | – | – | – | – | – |
| 808.36 µg/mL (≈ 1730 µM) | 52.13 µg/mL (≈ 111 µM) | 79.06 µg/mL (≈ 169 µM) | CN(C)c1ccc(/C=C/C(=O)/C(CNc2ccccc2)=C(O)/C=C/c2ccc(N(C)C)cc2)cc1 | Active | – | Active | Active | – | – | – |
| 51.79 µg/mL (≈ 144 µM) | 50.78 µg/mL (≈ 142 µM) | 46.05 µg/mL (≈ 128 µM) | CN(C)c1ccc(/C=C/c2cc(/C=C/c3ccc(N(C)C)cc3)[nH]n2)cc1 | – | – | Active | inactive | Active | Active | – |
| 186.05 µg/mL (≈ 347 µM) | 74.6 µg/mL (≈ 139 µM) | 81.69 µg/mL (≈ 153 µM) | CN(C)c1ccc(/C=C/C(=O)/C(CNc2cccc(C(F)(F)F)c2)=C(O)/C=C/c2ccc(N(C)C)cc2)cc1 | – | – | inactive | inactive | – | – | – |
| 226.71 µg/mL (≈ 467 µM) | 46.9 µg/mL (≈ 96.6 µM) | 48.16 µg/mL (≈ 99.2 µM) | CN(C)c1ccc(/C=C/C(=O)/C(CNc2ccc(F)cc2)=C(O)/C=C/c2ccc(N(C)C)cc2)cc1 | – | Active | Active | inactive | – | Active | 12 mm |
| 129.85 µg/mL (≈ 352 µM) | 52.24 µg/mL (≈ 142 µM) | 52.51 µg/mL (≈ 143 µM) | COc1cc(/C=C/C(=O)CC(=O)/C=C/c2ccc(O)c(OC)c2)ccc1O [CURCUMIN] | Active | Active | Active | Active | – | Active | 11 mm |

More lines, now with the values behind:

| SMILES | IC50 [1] | IC50 [4] | IC50 [5] | Activity (Staphylococcus aureus [2]) | Activity (Escherichia coli [3]) | Activity (Escherichia coli [6]) | Activity (Staphylococcus aureus [7]) | Activity (Pseudomonas aeruginosa) | Activity (Klebsiella pneumoniae) | zone of inhibition at 50 µg/disc (Pseudomonas aeruginosa) |
| --- | --- | --- | --- | --- | --- | --- | --- | --- | --- | --- |
| CN(C)c1ccc(/C=C/c2cc(/C=C/c3ccc(N(C)C)cc3)n(-c3ccccc3)n2)cc1 | 29.44 µg/mL (≈ 67.7 µM) | 72.42 µg/mL (≈ 167 µM) | 74.03 µg/mL (≈ 170 µM) | Active | Active | Active | Active | – | – | – |
| O=C([O-])Cc1ccccc1Nc1c(Cl)cccc1Cl.[Na+] [DICLOFENAC SODIUM] | 52.95 µg/mL | – | – | – | – | – | – | – | – | – |
| CN(C)c1ccc(/C=C/C(=O)/C=C(O)/C=C/c2ccc(N(C)C)cc2)cc1 | 180.38 µg/mL (≈ 498 µM) | 74.56 µg/mL (≈ 206 µM) | 78.52 µg/mL (≈ 217 µM) | – | – | – | – | – | – | – |
| COc1cc(C=C(C(=O)/C=C/c2ccc(N(C)C)cc2)C(=O)/C=C/c2ccc(N(C)C)cc2)ccc1O | 106.16 µg/mL (≈ 214 µM) | 44.95 µg/mL (≈ 90.5 µM) | 75.37 µg/mL (≈ 152 µM) | – | Active | Active | – | Active | – | – |
| CN(C)c1ccc(/C=C/c2cc(/C=C/c3ccc(N(C)C)cc3)n(-c3ccc(F)cc3)n2)cc1 | 216.32 µg/mL (≈ 478 µM) | 89.05 µg/mL (≈ 197 µM) | 74.38 µg/mL (≈ 164 µM) | Active | Active | Active | – | – | Active | – |
| COc1ccc(-n2nc(/C=C/c3ccc(N(C)C)cc3)cc2/C=C/c2ccc(N(C)C)cc2)cc1 | 751.12 µg/mL (≈ 1620 µM) | 79.59 µg/mL (≈ 171 µM) | 88.05 µg/mL (≈ 190 µM) | – | – | Active | inactive | – | – | – |
| COc1ccccc1NC/C(C(=O)/C=C/c1ccc(N(C)C)cc1)=C(O)\C=C\c1ccc(N(C)C)cc1 | 81.36 µg/mL (≈ 163 µM) | 53.94 µg/mL (≈ 108 µM) | 76.28 µg/mL (≈ 153 µM) | Active | – | Active | – | – | – | – |
